# According to patent US5260327A, “Methods for inhibiting the proliferation of brain and hepatic metastases by using lonidamine” (priority 1992, dated 1993):
# “Also recorded” adds a separate entry of the source.
# How the values were obtained:
# [1] = test system: brain metastases; settings: cited from earlier work
# [2] = test system: Meth-A fibrosarcoma; assay: In vivo trimodality therapy versus single and bimodality therapy, tumor growth delay; set-up: species or system mice; settings: lonidamine 50 mg/kg/day
# Excerpt: (§1) The effect of trimodality therapy has been examined in HeLa monolayer cell cultures and in the transplanted Meth-A fibrosarcoma. The studies in HeLa cell cultures used a single radiation fraction, and prompt subculture for clonal analysis, conditions which would reduce any heat or drug-induced effect on potential lethal damage. […] In vivo comparative assessment of trimodality therapy versus single and bimodality combination was made in the oxic Meth-A fibrosarcoma. The trimodality regimen consisted of lonidamine (50 mg/kg/day chronically throughout the period of observation), plus radiation therapy (6 Gy×5), and hyperthermia (41.2° C.×65 min pre radiation therapy on days 1 and 4 of therapy); the results are presented in FIG. 14.
# [3] = test system: oxidative and glycolytic metabolism of mammalian cells; settings: cited from earlier work
# [4] = test system: cell culture and murine tumor systems; settings: cited from earlier work
# [5] = cited from earlier work
# [6] = test system: hepatic metastases; assay: Phase I study of lonidamine + radiation therapy in patients with hepatic metastases; type: in vivo, human (patients)
# Procedure: Lonidamine has received extensive clinical assessment both as a single agent and in combination with radiation therapy. […] In this dosage peak plasma levels of 5 to 15 μg/ml are attained; this is within the range that enhances the effect of radiation and hyperthermia in model systems (24-26, 30, 37 and 38). Two combined lonidamine+radiation therapy studies have been conducted in patients with extensive hepatic or brain metastases, respectively. […] The study in patients with brain metastases employed a randomized comparative design. Fifty eight patients were enrolled; 31 received lonidamine plus whole brain radiation therapy (WBRT) 300 cGy×10; 27 received WBRT alone.
# [7] = test system: spermatogenesis; settings: in vivo; cited from earlier work
# [8] = test system: Stage 2-4 head and neck cancer; settings: cited from earlier work
# [9] = test system: multicellular HeLa spheroids; assay: Radio-enhancement in multicellular tumor spheroids (growth delay); type: cell-based, human
# Excerpt: Based on these studies, and on supportive studies in mice receiving the drug chronically,Kim et al. proposed that optimal use of lonidamine would be to employ it both during and, in a prolonged exposure, after the course of radiation therapy.
# The drug's radio-enhancing effects in multicellular tumor spheroids (MTS) was examined assessing growth delay following radiation with and without the drug.
# [10] = test system: HeLa cells; assay: Trimodality therapy in HeLa monolayer cell cultures; type: cell-based, human
# Excerpt: Lonidamine was present only during heating.
# as §1
# [11] = test system: repair of radiation-induced potentially lethal damage (PLD); settings: cited from earlier work
# [12] = test system: Meth-A fibrosarcoma; assay: In vivo therapy with lonidamine, radiation and hyperthermia, tumor control; set-up: species or system BALB/cBy mice
# Procedure: Localized radiation and hyperthermia was performed on BALB/cBy mice when tumors were 0.7+/-0.1 cucm and tumor analysis endpoints have been previously described. (26) Tumor control was defined as non-palpable tumor at 60 days. Waterbath temperatures were 41.7° C./65 minutes and […]/65 minutes×2 fractions. […] (Bailey, 26 g thermocouple) below circulated water bath temperatures. Separation between the two hyperthermia treatments was 72 hours.
# Lonidamine administration at hour pre-radiation and immediately hyperthermia and was based on serum pharmacokinetic and radiation studies (25). Animals were primed at 100 mg/kg. s.c., 3 days pre-radiation or hyperthermia. At the initiation of radiation or hyperthermia, animals were inoculated 50 mg/kg i.p. 1 hour before treatment and 50 mg/kg s.c. at 48 hours post treatment. Animals were maintained (100 mg/kg) during fractionation and post treatment until recurrence to initial volumes.
# [13] = single large daily dosage just prior to radiation
smiles,measurement,setting,value
O=C(O)c1nn(Cc2ccc(Cl)cc2Cl)c2ccccc12 [lonidamine],"response or survival, lonidamine + WBRT vs WBRT alone",[1]; WBRT 300 cGy×10,no significant difference in response or survival
same,"patients with peak plasma levels ≥15 μg/ml, WBRT study",[1]; [13],15 of 30
same,"day of tumor regrowth, trimodality therapy","[2]; 6 Gy×5, 41.2° C.×65 min, regrowth not yet evident (radiation+hyperthermia: day 18)",> 32 days
same,"tumor growth inhibition, radiation therapy+lonidamine, until day",[2]; radiation 6 Gy×5 (radiation alone: day 11),13 days
same,"tumor regression, trimodality therapy","[2]; radiation 6 Gy×5, hyperthermia 41.2° C.×65 min days 1 and 4",tumor regression to the point of non-palpability
same,effects on oxidative and glycolytic metabolism,[3],inhibitory effects on both oxidative and glycolytic metabolism of mammalian cells; also recorded: perturb energy metabolism in neoplastic cells
same,pH dependence of hyperthermia enhancing effects,[4]; acidification of cell culture medium,greatly increased by acidification of the cell culture medium; also recorded: increased in cells under conditions of reduced extracellular pH
same,radiation and hyperthermia enhancement,[4],radiation and hyperthermia enhancing agent in cell culture and murine tumor systems; also recorded: enhanced cytotoxic effects in cells treated either with radiation or hyperthermia
same,peak plasma levels,[5]; 150 mg t.i.d.,5 to 15 µg/mL
same,tolerability,[5]; 150 mg t.i.d.,well tolerated by most patients
same,dose-limiting side effect,[5]; clinical,skeletal muscle discomfort
same,objective tumor regression,[6]; lonidamine + radiation therapy 250 to 500 cGy ×5,five of fifteen
same,"patients with peak plasma levels ≥15 μg/ml, hepatic study",[6]; [13],11 of 17
same,patient tolerance of the combination,[6]; single large daily lonidamine dosage + radiation therapy,acceptable patient tolerance
same,inhibition of spermatogenesis,[7],potent inhibitor of spermatogenesis in mammals
same,disease free survival at 2 years (all patients),[8]; Radiation Therapy+Lonidamine 150 mg t.i.d. (placebo arm: 25%),51%
same,complete response rate,[8]; Radiation Therapy+Lonidamine 150 mg t.i.d. (placebo arm: 58%),69%
same,remission duration,[8]; Radiation Therapy+Lonidamine 150 mg t.i.d. vs placebo arm,longer in the lonidamine treated arm
same,disease free survival rate versus radiation therapy,"[8]; lonidamine + radiation therapy, placebo-controlled randomized study",significantly increased the disease free survival rate
same,spheroid regrowth on lonidamine removal,[9]; lonidamine removed 5 days following the last radiation exposure,begins to grow again when lonidamine is removed
same,effect of fractionation of radiation dose on lonidamine effect,"[9]; multicellular HeLa spheroids, with radiation",increased by fractionation of the radiation dose; also recorded: increased with increasing dose fractionation
same,cytotoxic effect on HeLa cells,[10]; 37° C.,no cytotoxic effect on HeLa cells at 37 °C
same,trimodality therapy vs radiation alone or bimodality therapy,"[10]; radiation therapy+lonidamine+mild hyperthermia (41.5° C.), single radiation fraction","clearly superior to radiation alone, or bimodality therapy"
same,inhibition of repair of radiation-induced potentially lethal damage,[11],inhibitor of repair of radiation-induced potentially lethal damage; also recorded: established inhibitor of repair of potential lethal damage
same,"tumor response, lonidamine+hyperthermia vs hyperthermia alone and radiation+lonidamine vs radiation alone","[12]; 41.2° C. or 41.7° C., fractionated",No differences were observed
same,"tumor response, lonidamine in adjuvant capacity",[12]; adjuvant,Marginal differences in tumor response
same,tri-modality therapy vs single or bi-modality treatments,"[12]; mouse, in vivo",consistently greater effect when compared to single or bi-modality treatments
same,"tumor control, tri-modality therapy (radiation+hyperthermia+lonidamine)","[12]; non-palpable tumor at 60 days, 41.2° C. or 41.7° C.",50-56%
same,tri-modality therapy vs radiation+hyperthermia at 41.2° C.,[12]; tumor control,more effective than the tumor control for radiation+hyperthermia at 41.2 °C
